From US4522813A, “Cyclic hexapeptide somatostatin analogs” (Merck & Co., Inc., priority 1983, dated 1985)

Tests used:
portal vein glucagon = assay: Decrease of portal vein glucagon levels in anesthetized rats; assay type: in vivo, rat; conditions: multiple or fraction of the effect of somatostatin (=1), fiducial limits in parentheses, external jugular vein, portal vein blood after 5 minutes
Description: (§1) Analogs of somatostatin were compared to somatostatin in their ability to decrease the levels of portal vein glucagon and insulin in anesthetized rats. Male Sprague-Dawley rats (Charles River CD) weighing 160-200 g were anesthetized with urethane (150 mg/100 g of body weight; Aldrich). Saline or peptides were administered via the external jugular vein. After 5 minutes, the portal vein was exposed, and blood was collected via syringe containing 3 mg of EDTA and placed in chilled tubes containing 100 μl of Trasylol (FBA Pharmaceuticals) for subsequent hormone analysis. Plasma levels of glucagon were determined by the method of Faloona and Unger, Methods of Hormone Radioimmunoassay, Jaffe and Behrman (Eds), Academic Press, New York, Vol, II, pp. 257-527 (1976), utilizing glucagon antisera 30K obtained from R. Unger (Dallas, TX). Plasma levels of insulin were determined by a modification of the procedure of Herbert et al., J. Clin. Endocrinol. Metab., 25, 1375-1384 (1965).

[1] = system: pentagastrin evoked gastric secretion; assay: Inhibition of pentagastrin evoked gastric secretion in the chronic fistula dog; assay type: in vivo; design: dose or concentration left out as unconfirmed; conditions: infusion 0-60 min., relative to placebo trial; for Gastric Secretion & Inhibition, Acid Concentration 0-30 / Gastric Secretion & Inhibition, Vol. 0-30: interval 0-30 min; for Gastric Secretion & Inhibition, Acid Concentration 30-60 / Gastric Secretion & Inhibition, Vol. 30-60: interval 30-60 min; for Gastric Secretion & Inhibition, Acid Concentration 60-90 / Gastric Secretion & Inhibition, Vol. 60-90: interval 60-90 min; for Gastric Secretion & Inhibition, Acid Concentration 90-120 / Gastric Secretion & Inhibition, Vol. 90-120: interval 90-120 min
Description: The gastric effects of the instant cyclichexapeptide analogs of somatostatin are determined by the following procedure.
Compounds were tested for their ability to inhibit pentagastrin evoked gastric secretion in the chronic fistula dog. Female beagle dogs with a chronic gastric fistula were given pentagastrin (2.5 μg./kg./hour, i.v. from -60 to 120 min.) and gastric outputs were collected via the fistula cannula. Samples were analyzed at 30 minute intervals for volume (Ml.) and titratable acid (mEq/L) (Titration to pH 7 with 0.01N NaOH); total acid output (mEq) was calculated as the production of output volume and acid concentration. Test compounds were infused at a constant rate from 0 to 60 minutes. Data have been expressed as percent change of total acid output relative to a placebo trial in the same animals.

[2] = system: growth hormone release from rat pituitary cells; assay: In vitro inhibition of growth hormone release, cultured rat pituitary cells; assay type: cell-based; conditions: multiple or fraction of the effect of somatostatin (=1), fiducial limits in parentheses, 4 hours incubation
Description: The instant cyclic hexapeptide analogs of somatostatin are tested and compared with the effects of somatostatin in an in vitro test for the inhibition of growth hormone. The test is described as follows:
"Rat pituitaries were isolated according to the procedures of Vale and Grant "In vitro Pituitary Hormone Secretion Assay for Hypophysiotropic Substances" in Methods in Enzymology, Vol. XXXVII, eds. O'Malley, B. W. and Hardman, J. G. (Academic Press, Inc., New York) pp. 5-93 (1975).
After 4 days in culture, the cells were washed and incubated for 4 hours in Dulbecco-modified Eagle's medium in the presence or absence of graded doses of each analog or somatostatin. The medium was then collected for subsequent growth hormone determination by a double antibody radioimmunoassay for rat growth hormone."

portal vein insulin = assay: Decrease of portal vein insulin levels in anesthetized rats; assay type: in vivo, rat; conditions: multiple or fraction of the effect of somatostatin (=1), fiducial limits in parentheses, external jugular vein, portal vein blood after 5 minutes
Description: as §1

Molecule | Glucagon Inhibition (portal vein glucagon) | Gastric Secretion & Inhibition, Acid Concentration 0-30 [1] [%] | Gastric Secretion & Inhibition, Vol. 0-30 [1] [%] | Gastric Secretion & Inhibition, Acid Concentration 30-60 [1] [%] | Gastric Secretion & Inhibition, Vol. 30-60 [1] [%] | Gastric Secretion & Inhibition, Acid Concentration 60-90 [1] [%] | Gastric Secretion & Inhibition, Vol. 60-90 [1] [%] | Gastric Secretion & Inhibition, Acid Concentration 90-120 [1] [%] | Gastric Secretion & Inhibition, Vol. 90-120 [1] [%] | Growth Hormone Release Inhibition [2] | Insulin Inhibition (portal vein insulin)
C[C@H](N)C(=O)NCC(=O)N[C@H]1CSSC[C@@H](C(=O)O)NC(=O)[C@H](CO)NC(=O)[C@H]([C@@H](C)O)NC(=O)[C@H](Cc2ccccc2)NC(=O)[C@H]([C@@H](C)O)NC(=O)[C@H](CCCCN)NC(=O)[C@H](Cc2c[nH]c3ccccc23)NC(=O)[C@H](Cc2ccccc2)NC(=O)[C@H](Cc2ccccc2)NC(=O)[C@H](CC(N)=O)NC(=O)[C@H](CCCCN)NC1=O [Somatostatin] | 1 | 16 | 85 | 77 | 97 | 61 | 81 | 14 | 37 | – | –
Cyclo--(Pro--Phe--D-Trp--cis-AChxAla--Thr--Phe) | 2.2 (1.1, 4.7) | 4 | 75 | 19 | 82 | 13 | 20 | 5 | 2 | 0.5 (0.3, 0.6) | 1.4 (0.7, 2.7)
Cyclo--(Pro--Phe--D-Trp--t-D-AChxGly--Thr--Phe) | 0.07 | – | – | – | – | – | – | – | – | 0.11 | 0.07
